The values that follow come from patent US20260250290A1 (BRISTOL-MYERS SQUIBB COMPANY, priority 2023, published 2026).

In this test the target is T1, full length SGK1 (Homo sapiens, UniProt O00141).
T1 construct: 125 μM full length SGK1 (Life Technologies Part #PR7358A); purchased Life Technologies PR7358A
T1 sequence (O00141 1-431): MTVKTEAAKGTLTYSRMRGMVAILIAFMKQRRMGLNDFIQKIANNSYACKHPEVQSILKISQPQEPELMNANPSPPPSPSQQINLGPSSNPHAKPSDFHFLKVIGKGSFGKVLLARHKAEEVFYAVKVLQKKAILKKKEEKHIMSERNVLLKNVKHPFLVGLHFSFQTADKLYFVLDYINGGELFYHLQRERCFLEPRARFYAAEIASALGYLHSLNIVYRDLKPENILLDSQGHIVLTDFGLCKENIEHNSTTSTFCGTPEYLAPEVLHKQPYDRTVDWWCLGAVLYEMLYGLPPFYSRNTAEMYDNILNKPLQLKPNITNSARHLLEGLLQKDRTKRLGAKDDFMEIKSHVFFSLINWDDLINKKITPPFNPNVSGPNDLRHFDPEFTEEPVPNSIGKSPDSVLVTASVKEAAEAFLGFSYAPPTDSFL
Kind of test: SGK1 inhibition Assay A (Caliper LabChip electrophoretic separation of fluorescent peptide substrate and phosphorylated product). The class given is biochemical. Conditions: Assay A; 20 μM ATP, 40 min incubation; read-out: SGK1 IC50.

As to `CC(=O)N1CCC(Oc2cc(C(F)F)sc2C(=O)N[C@@H]2CCCN(c3cc(-c4ccc(=O)n(CC(F)F)c4)n4ncnc(N)c34)C2)CC1` [Example 414, (R)-3-((1-acetylpiperidin-4-yl)oxy)-N-(1-(4-amino-7-(1-(2,2-difluoroethyl)-6-oxo-1,6-dihydropyridin-3-yl)pyrrolo[2,1-f][1,2,4]triazin-5-yl)piperidin-3-yl)-5-(difluoromethyl)thiophene-2-carboxamide], the IC50 was 11 nM.
For `CC(=O)N1CCC(Oc2cc(C(F)F)sc2C(=O)N[C@@H]2CCCN(c3cc(-c4cnc(C#N)c(C)c4)n4ncnc(N)c34)C2)CC1` [Example 415, (R)-3-((1-acetylpiperidin-4-yl)oxy)-N-(1-(4-amino-7-(6-cyano-5-methylpyridin-3-yl)pyrrolo[2,1-f][1,2,4]triazin-5-yl)piperidin-3-yl)-5-(difluoromethyl)thiophene-2-carboxamide] the value was 8 nM; for `CC(=O)N1CCC(Oc2cc(C(F)F)sc2C(=O)N[C@@H]2CCCN(c3cc(-c4ccc(C#N)nc4)n4ncnc(N)c34)C2)CC1` [Example 416, (R)-3-((1-acetylpiperidin-4-yl)oxy)-N-(1-(4-amino-7-(6-cyanopyridin-3-yl)pyrrolo[2,1-f][1,2,4]triazin-5-yl)piperidin-3-yl)-5-(difluoromethyl)thiophene-2-carboxamide], 29 nM.
The value for `COC(=O)N1CC=C(c2cc(N3CCC[C@@H](NC(=O)c4sc(Cl)cc4OCC(=O)N4CCCC4)C3)c3c(N)ncnn23)C1` [Example 418, Methyl (R)-3-(4-amino-5-(3-(5-chloro-3-(2-oxo-2-(pyrrolidin-1-yl)ethoxy)thiophene-2-carboxamido)piperidin-1-yl)pyrrolo[2,1-f][1,2,4]triazin-7-yl)-2,5-dihydro-1H-pyrrole-1-carboxylate] was 108 nM; that for `Nc1ncnn2c(-c3cncnc3)cc(N3CCC[C@@H](NC(=O)c4sc(Cl)cc4OCC(=O)N4CCCC4)C3)c12` [Example 419, (R)-N-(1-(4-amino-7-(pyrimidin-5-yl)pyrrolo[2,1-f][1,2,4]triazin-5-yl)piperidin-3-yl)-5-chloro-3-(2-oxo-2-(pyrrolidin-1-yl)ethoxy) thiophene-2-carboxamide] was 120 nM.
Regarding `N#Cc1ccc(-c2cc(N3CCC[C@@H](NC(=O)c4sc(Cl)cc4OCC(=O)N4CCCC4)C3)c3c(N)ncnn23)cn1` [Example 420, (R)-N-(1-(4-amino-7-(6-cyanopyridin-3-yl)pyrrolo[2,1-f][1,2,4]triazin-5-yl)piperidin-3-yl)-5-chloro-3-(2-oxo-2-(pyrrolidin-1-yl)ethoxy) thiophene-2-carboxamide], the IC50 worked out at 13 nM.
With `Cc1cc(-c2cc(N3CCC[C@@H](NC(=O)c4sc(Cl)cc4OCC(=O)N4CCCC4)C3)c3c(N)ncnn23)cnc1C#N` [Example 421, (R)-N-(1-(4-amino-7-(6-cyano-5-methylpyridin-3-yl)pyrrolo[2,1-f][1,2,4]triazin-5-yl)piperidin-3-yl)-5-chloro-3-(2-oxo-2-(pyrrolidin-1-yl)ethoxy) thiophene-2-carboxamide], the half-maximal inhibitory concentration (IC50) is 11 nM.
The value for `Nc1ncnn2c(-c3ccc(=O)n(CC(F)F)c3)cc(N3CCC[C@@H](NC(=O)c4sc(Cl)cc4OCC(=O)N4CCCC4)C3)c12` [Example 422, (R)-N-(1-(4-amino-7-(1-(2,2-difluoroethyl)-6-oxo-1,6-dihydropyridin-3-yl)pyrrolo[2,1-f][1,2,4]triazin-5-yl)piperidin-3-yl)-5-chloro-3-(2-oxo-2-(pyrrolidin-1-yl)ethoxy) thiophene-2-carboxamide] was 15 nM.
The value for `COC(=O)N1CC=C(c2cc(N3CCC[C@@H](NC(=O)c4sc(C(F)F)cc4OCCNC(C)=O)C3)c3c(N)ncnn23)C1` [Example 423, Methyl (R)-3-(5-(3-(3-(2-acetamidoethoxy)-5-(difluoromethyl)thiophene-2-carboxamido)piperidin-1-yl)-4-aminopyrrolo[2,1-f][1,2,4]triazin-7-yl)-2,5-dihydro-1H-pyrrole-1-carboxylate] was 30 nM; that for `CC(=O)NCCOc1cc(C(F)F)sc1C(=O)N[C@@H]1CCCN(c2cc(-c3cncnc3)n3ncnc(N)c23)C1` [Example 424, (R)-3-(2-acetamidocthoxy)-N-(1-(4-amino-7-(pyrimidin-5-yl)pyrrolo[2,1-f][1,2,4]triazin-5-yl)piperidin-3-yl)-5-(difluoromethyl)thiophene-2-carboxamide] was 49 nM.
For `CC(=O)NCCOc1cc(C(F)F)sc1C(=O)N[C@@H]1CCCN(c2cc(-c3ccc(C#N)nc3)n3ncnc(N)c23)C1` [Example 425, (R)-3-(2-acetamidocthoxy)-N-(1-(4-amino-7-(6-cyanopyridin-3-yl)pyrrolo[2,1-f][1,2,4]triazin-5-yl)piperidin-3-yl)-5-(difluoromethyl)thiophene-2-carboxamide] the value was 14 nM; for `CC(=O)NCCOc1cc(C(F)F)sc1C(=O)N[C@@H]1CCCN(c2cc(-c3cnc(C#N)c(C)c3)n3ncnc(N)c23)C1` [Example 426, (R)-3-(2-acetamidoethoxy)-N-(1-(4-amino-7-(6-cyano-5-methylpyridin-3-yl)pyrrolo[2,1-f][1,2,4]triazin-5-yl)piperidin-3-yl)-5-(difluoromethyl)thiophene-2-carboxamide], 30 nM.
Take `CC(=O)NCCOc1cc(C(F)F)sc1C(=O)N[C@@H]1CCCN(c2cc(-c3ccc(=O)n(CC(F)F)c3)n3ncnc(N)c23)C1` [Example 427, (R)-3-(2-acetamidoethoxy)-N-(1-(4-amino-7-(1-(2,2-difluoroethyl)-6-oxo-1,6-dihydropyridin-3-yl)pyrrolo[2,1-f][1,2,4]triazin-5-yl)piperidin-3-yl)-5-(difluoromethyl)thiophene-2-carboxamide]: the half-inhibitory concentration (IC50) turned out to be 12 nM.
With `COC(=O)NCCOc1cc(C(F)F)sc1C(=O)N[C@@H]1CCCN(c2cc(C3=CCN(C(=O)OC)C3)n3ncnc(N)c23)C1` [Example 428, Methyl (R)-3-(4-amino-5-(3-(5-(difluoromethyl)-3-(2-((methoxycarbonyl)amino)ethoxy)thiophene-2-carboxamido)piperidin-1-yl)pyrrolo[2,1-f][1,2,4]triazin-7-yl)-2,5-dihydro-1H-pyrrole-1-carboxylate], the IC50 amounted to 21 nM.
The value for `COC(=O)NCCOc1cc(C(F)F)sc1C(=O)N[C@@H]1CCCN(c2cc(-c3cncnc3)n3ncnc(N)c23)C1` [Example 429, methyl (R)-(2-((2-((1-(4-amino-7-(pyrimidin-5-yl)pyrrolo[2,1-f][1,2,4]triazin-5-yl)piperidin-3-yl)carbamoyl)-5-(difluoromethyl)thiophen-3-yl)oxy)ethyl)carbamate] was 60 nM.
As for `COC(=O)NCCOc1cc(C(F)F)sc1C(=O)N[C@@H]1CCCN(c2cc(-c3cnc(C#N)c(C)c3)n3ncnc(N)c23)C1` [Example 431, methyl (R)-(2-((2-((1-(4-amino-7-(6-cyano-5-methylpyridin-3-yl)pyrrolo[2,1-f] [1,2,4]triazin-5-yl)piperidin-3-yl)carbamoyl)-5-(difluoromethyl)thiophen-3-yl)oxy)ethyl)carbamate], the IC50 is 14 nM.
Turning to `CC(=O)NCCOc1cc(C(F)F)sc1C(=O)N[C@@H]1CCCN(c2cc(-c3ccc(=O)n(CC(F)F)c3)n3ncnc(N)c23)C1` [Example 432, (R)-3-(2-acetamidoethoxy)-N-(1-(4-amino-7-(1-(2,2-difluoro-ethyl)-6-oxo-1,6-dihydropyri-din-3-yl)pyrrolo[2,1-f] [1,2,4]triazin-5-yl)piperidin-3-yl)-5-(difluoromethyl)thio-phene-2-carboxamide], the IC50 was 8 nM.
For `CC(=O)N1CC=C(c2cc(N3CCC[C@@H](NC(=O)c4sc(C(F)F)cc4OC4COC4)C3)c3c(N)ncnn23)C1` [Example 433, (R)—N-(1-(7-(1-acetyl-2,5-dihydro-1H-pyrrol-3-yl)-4-aminopyrrolo[2,1-f][1,2,4]triazin-5-yl)piperidin-3-yl)-5-(difluoromethyl)-3-(oxetan-3-yloxy)thiophene-2-carboxamide] the value was 18 nM; for `COC(=O)N1CC=C(c2cc(N3CCC[C@@H](NC(=O)c4sc(C(F)F)cc4OC4COC4)C3)c3c(N)ncnn23)C1` [Example 434, methyl (R)-3-(4-amino-5-(3-(5-(difluoromethyl)-3-(oxetan-3-yloxy)thiophene-2-carboxamido)piperidin-1-yl)pyrrolo[2,1-f][1,2,4]triazin-7-yl)-2,5-dihydro-1H-pyrrole-1-carboxylate], 10 nM.
For `N#Cc1ccc(-c2cc(N3CCC[C@@H](NC(=O)c4sc(C(F)F)cc4OC4COC4)C3)c3c(N)ncnn23)cn1` [Example 435, (R)-N-(1-(4-amino-7-(6-cyanopyridin-3-yl)pyrrolo[2,1-f][1,2,4]triazin-5-yl)piperidin-3-yl)-5-(difluoromethyl)-3-(oxetan-3-yloxy)thiophene-2-carboxamide] the value was 7 nM; for `Cc1cc(-c2cc(N3CCC[C@@H](NC(=O)c4sc(C(F)F)cc4OC4COC4)C3)c3c(N)ncnn23)cnc1C#N` [Example 436, (R)-N-(1-(4-amino-7-(6-cyano-5-methylpyridin-3-yl)pyrrolo[2,1-f][1,2,4]triazin-5-yl)piperidin-3-yl)-5-(difluoromethyl)-3-(oxetan-3-yloxy)thiophene-2-carboxamide], 12 nM.
